Biological target: T1, human recombinant COX-2 (Homo sapiens, UniProt P35354)
T1 sequence (P35354 18-604): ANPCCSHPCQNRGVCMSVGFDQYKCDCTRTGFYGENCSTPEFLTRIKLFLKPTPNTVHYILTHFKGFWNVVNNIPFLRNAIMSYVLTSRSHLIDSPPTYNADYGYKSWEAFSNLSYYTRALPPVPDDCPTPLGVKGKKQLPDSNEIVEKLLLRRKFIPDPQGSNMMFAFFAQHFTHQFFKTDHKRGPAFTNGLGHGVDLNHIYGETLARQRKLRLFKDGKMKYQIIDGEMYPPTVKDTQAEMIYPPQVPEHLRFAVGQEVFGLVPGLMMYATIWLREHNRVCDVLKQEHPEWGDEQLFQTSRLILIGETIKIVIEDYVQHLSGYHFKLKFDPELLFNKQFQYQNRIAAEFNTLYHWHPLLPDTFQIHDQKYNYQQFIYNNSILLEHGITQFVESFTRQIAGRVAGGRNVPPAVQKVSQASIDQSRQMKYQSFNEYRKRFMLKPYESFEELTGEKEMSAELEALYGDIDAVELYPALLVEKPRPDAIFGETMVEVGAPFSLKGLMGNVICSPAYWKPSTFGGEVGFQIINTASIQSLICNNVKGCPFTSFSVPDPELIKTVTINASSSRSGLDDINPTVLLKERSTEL
Test: In vitro COX-2 inhibition, enzyme immunoassay
Type: biochemical
Settings: not given

In order of falling IC50:
1. CCCCCCCCCCCC1=C(O)C(=O)C=C(NC)C1=O [Compound 2, 2-Hydroxy-5-(methylamino)-3-undecylcyclohexa-2,5-diene-1,4-dione]  3.1 µM
2. CCCCCCCCCCCC1=C(O)C(=O)C=C(O)C1=O [Compound 1, 2,5-dihydroxy-3-undecyl-1,4-benzoquinone]  2.98 µM
3. CCCCCCCCCCCC1=C(O)C(=N/C)/C=C(O)C/1=N/C [Compound 5, (3E, 6E)-3,6-bis(Methylimino)-2-undecylcyclohexa-1,4-diene-1,4-diol]  2.56 µM
4. CCCCCCCCCCCC1=C(O)C(=N/CC)/C=C(O)C/1=N/CC [Compound 6, (3E, 6E)-3,6-bis(Ethylimino)-2-undecylcyclohexa-1,4-diene-1,4-diol]  2.15 µM
5. CCCCCCCCCCCC1=C(O)C(=O)C=C(NCCN(C)C)C1=O [Compound 3, 5-(2-(Dimethylamino)ethylamino)-2-hydroxy-3-undecylcyclohexa-2,5-diene-1,4-dione]  1.65 µM
6. CCCCCCCCCCCc1c2oc3cccnc3nc-2cc(O)c1=O [Compound 7, 8-hydroxy-6-undecyl-7H-benzo[b]pyrido[2,3-e][1,4]oxazin-7-one]  1.56 µM
7. CCCCCCCCCCCC1=C(OC(C)=O)C(=O)C=C(OC(C)=O)C1=O [Compound 8, 3,6-Dioxo-2-undecylcyclohexa-1,4-diene-1,4-diyl diacetate]  1.23 µM

Same assay, conditions: ratio COX-1 IC50/COX-2 IC50

In order of rising “COX-2 S. I. (in vitro COX-2 selectivity index, COX-1/COX-2)” value:
1. CCCCCCCCCCCC1=C(OC(C)=O)C(=O)C=C(OC(C)=O)C1=O [Compound 8, 3,6-Dioxo-2-undecylcyclohexa-1,4-diene-1,4-diyl diacetate]  1.83
2. CCCCCCCCCCCc1c2oc3cccnc3nc-2cc(O)c1=O [Compound 7, 8-hydroxy-6-undecyl-7H-benzo[b]pyrido[2,3-e][1,4]oxazin-7-one]  2.04
3. CCCCCCCCCCCC1=C(O)C(=O)C=C(NC)C1=O [Compound 2, 2-Hydroxy-5-(methylamino)-3-undecylcyclohexa-2,5-diene-1,4-dione]  2.11
4. CCCCCCCCCCCC1=C(O)C(=O)C=C(O)C1=O [Compound 1, 2,5-dihydroxy-3-undecyl-1,4-benzoquinone]  2.15
5. CCCCCCCCCCCC1=C(O)C(=O)C=C(NCCN(C)C)C1=O [Compound 3, 5-(2-(Dimethylamino)ethylamino)-2-hydroxy-3-undecylcyclohexa-2,5-diene-1,4-dione]  2.17
6. CCCCCCCCCCCC1=C(O)C(=N/C)/C=C(O)C/1=N/C [Compound 5, (3E, 6E)-3,6-bis(Methylimino)-2-undecylcyclohexa-1,4-diene-1,4-diol]  2.98
7. CCCCCCCCCCCC1=C(O)C(=N/CC)/C=C(O)C/1=N/CC [Compound 6, (3E, 6E)-3,6-bis(Ethylimino)-2-undecylcyclohexa-1,4-diene-1,4-diol]  3.18

Biological target: T2, ovine COX-1 (Ovis aries, UniProt P05979)
T2 sequence (P05979 25-600): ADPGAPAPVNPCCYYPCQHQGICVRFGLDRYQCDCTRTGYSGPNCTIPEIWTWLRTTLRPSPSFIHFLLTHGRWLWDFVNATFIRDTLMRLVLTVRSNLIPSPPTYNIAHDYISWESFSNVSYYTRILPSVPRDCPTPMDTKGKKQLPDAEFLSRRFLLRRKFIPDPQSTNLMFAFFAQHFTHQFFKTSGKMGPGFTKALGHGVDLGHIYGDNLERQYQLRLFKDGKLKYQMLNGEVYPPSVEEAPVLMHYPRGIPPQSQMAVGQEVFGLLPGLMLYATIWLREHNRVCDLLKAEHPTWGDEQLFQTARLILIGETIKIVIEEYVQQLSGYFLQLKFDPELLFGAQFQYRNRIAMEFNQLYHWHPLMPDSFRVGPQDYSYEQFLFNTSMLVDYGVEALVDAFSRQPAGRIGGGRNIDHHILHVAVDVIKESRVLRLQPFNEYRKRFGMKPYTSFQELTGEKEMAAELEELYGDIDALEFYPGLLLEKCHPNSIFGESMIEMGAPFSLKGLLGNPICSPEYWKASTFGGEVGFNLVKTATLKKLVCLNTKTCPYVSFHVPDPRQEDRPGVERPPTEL
Test: In vitro COX-1 inhibition, enzyme immunoassay
Type: biochemical
Settings: not given

In order of rising IC50:
1. CCCCCCCCCCCC1=C(OC(C)=O)C(=O)C=C(OC(C)=O)C1=O [Compound 8, 3,6-Dioxo-2-undecylcyclohexa-1,4-diene-1,4-diyl diacetate]  2.25 µM
2. CCCCCCCCCCCc1c2oc3cccnc3nc-2cc(O)c1=O [Compound 7, 8-hydroxy-6-undecyl-7H-benzo[b]pyrido[2,3-e][1,4]oxazin-7-one]  3.19 µM
3. CCCCCCCCCCCC1=C(O)C(=O)C=C(NCCN(C)C)C1=O [Compound 3, 5-(2-(Dimethylamino)ethylamino)-2-hydroxy-3-undecylcyclohexa-2,5-diene-1,4-dione]  3.58 µM
4. CCCCCCCCCCCC1=C(O)C(=O)C=C(O)C1=O [Compound 1, 2,5-dihydroxy-3-undecyl-1,4-benzoquinone]  6.42 µM
5. CCCCCCCCCCCC1=C(O)C(=O)C=C(NC)C1=O [Compound 2, 2-Hydroxy-5-(methylamino)-3-undecylcyclohexa-2,5-diene-1,4-dione]  6.54 µM
6. CCCCCCCCCCCC1=C(O)C(=N/CC)/C=C(O)C/1=N/CC [Compound 6, (3E, 6E)-3,6-bis(Ethylimino)-2-undecylcyclohexa-1,4-diene-1,4-diol]  6.85 µM
7. CCCCCCCCCCCC1=C(O)C(=N/C)/C=C(O)C/1=N/C [Compound 5, (3E, 6E)-3,6-bis(Methylimino)-2-undecylcyclohexa-1,4-diene-1,4-diol]  7.65 µM

Reference: publication PMC9575004 (Journal of Molecular Structure, 2022)
